Source: patent US5223637A, “KS-506 compounds” (Kyowa Hakko Kogyo Co., Ltd., priority 1988, dated 1993)
≈ marks a conversion by molar mass, not a printed value. Where a name gives a salt, the structure may show the parent alone.

Key:
[1] = test system: PDE preparation partially purified from bovine cerebral cortex; test: PDE-inhibiting activity (Experimental Example 1); type: biochemical; conditions: 1.2 mM cAMP, 4 U/ml calmodulin, 50 μM calcium chloride, pH 6.9, 30° C., 30 minutes
Protocol: Methanol solutions of the test compounds at various concentrations (50 μl each) were respectively added to 500 μl of a reaction mixture comprising 80 mM imidazole-hydrochloride buffer (pH 6.9), 3 mM magnesium sulfate, 0.3 mM dithiothreitol, 100 mM sodium chloride, 50 μM calcium chloride, 1.2 mM cAMP, 4 U/ml calmodulin (1U is defined as the amount which activates 50% of the maximum activity of PDE under the conditions) and 26 mU/ml PDE (1U is defined as the amount which hydrolyzes 1 μmol of cAMP in one minute), and reaction was allowed to proceed at 30° C. for 30 minutes.
The reaction was discontinued by heating at 100° C. for 5 minutes. Then, 6 μmol of manganese chloride and 0.2 U of 5'-nucleotidase (1U is defined as the amount which forms 1 μmol of phosphoric acid in one minute) were added to the reaction mixture, and reaction was allowed to proceed at 30° C. for 30 minutes. […] Inhibition rate was calculated in accordance with the following equation:
Inhibition rate=(A-B)/A×100 (%)
A: Amount of the inorganic phosphoric acid formed in the absence of a test compound
B: Amount of the inorganic phosphoric acid formed in the presence of a test compound

[2] = Solubility; type: physicochemical; conditions: for Solubility (solvents in which insoluble): hexane and water; for Solubility (solvents in which soluble): organic solvents as listed
[3] = test system: Rat Peritoneal Exudate Cells; test: Effect on Histamine Release from Rat Peritoneal Exudate Cells (Experimental Example 2); type: cell-based; conditions: phosphatidyl-L-serine and concanavalin A stimulation; for IC50: 37° C., read-out: IC50 (concentration of a test compound which inhibits histamine release by 50%)
Protocol: Effect on Histamine Release from Rat Peritoneal Exudate Cells
1) Preparation of Suspension of Rat Abdominal Cavity Cells and Effect on Histamine Release
Rats weighing from 350 to 450 g were sacrificed by exsanguination under dry ether anesthesia, and a medium for mast cells (composition : 150 mM NaCl, 3.7 mM KCl, 3 mM Na2 HPO4, 3.5 mM KH2 PO4, 1 mM CaCl2, 5.6 mM glucose, 0.1% bovine serum albumin and 10 U/ml heparin) prepared according to the method of Sullivan, et al. [J. Immunol. 114, 1473 (1973)] was intraperitoneally injected into the animals in an amount of 15 ml/animal. After massage of the abdominal parts for 2 minutes, the animals were subjected to celiotomy to sample exudate in the abdominal cavities. The collected exudate was subjected to centrifugation at 100 xg at 4° C. for 5 minutes, and the precipitate was mixed with an appropriate amount of the ice-cooled medium for mast cells mentioned above to prepare a suspension. Then, the centrifugation and the addition of the medium were repeated three times to prepare a cell suspension wherein the final concentration of the mast cells was about 2×10^5 cells/ml. Identification of the mast cells was carried out by staining intracellular granules with 0.05% Toluidine Blue.
One milliliter portions of the thus obtained cell suspension were preincubated at 37° C. for 5 minutes, and then respectively mixed with 0.1 ml each of test compound solutions having various concentrations,followed by incubation for 5 minutes. The incubated mixtures were further mixed with 0.1 ml each of 10 μg/ml phosphatidyl-L-serine and concanavalin A, and then incubated for 15 minutes.
Spontaneous histamine release was determined under similar incubation conditions except that physiological saline was used in place of phosphatidyl-L-serine and concanavalin A.
The reaction was stopped by addition of 3 ml of ice-cooled physiological saline, and the cell suspension was subjected to centrifugation at 1100 xg at 4° C. for 10 minutes to obtain a supernatant and a residue. Histamine contents of the supernatant and the residue were measured by the fluorescence method according to the method of Komatsu [Allergy 27, 67 (1978)]. Histamine release rate was indicated as the percentage of the histamine content of the supernatant to the total histamine content of the cells. The rate of inhibition of histamine release by the test compound solution was calculated according to the following equation: [formula]

| Structure (SMILES) | IC50 (concentration of a test compound inhibiting 50% of the PDE activity) [1] | Solubility (solvents in which insoluble) [2] | Solubility (solvents in which soluble) [2] | also measured |
| --- | --- | --- | --- | --- |
| Cc1c(C)c(C(=O)Oc2c(C)c(O)c(C)c(C)c2C(=O)SSC(=O)c2c(C)c(C)c(O)c(C)c2OC(=O)c2c(C)c(C)c(O)c(C)c2O)c(O)c(C)c1O [KS-506a] | 1.22 µg/mL | insoluble in hexane and water | soluble in methanol, ethanol, acetone, ethyl acetate, acetonitrile, dimethylsulfoxide and chloroform |  |
| Cc1c(C)c(C(=O)Oc2c(C)c(O)c(C)c(C)c2SSc2c(C)c(C)c(O)c(C)c2OC(=O)c2c(C)c(C)c(O)c(C)c2O)c(O)c(C)c1O [KS-506g] | 0.080 µg/mL | insoluble in hexane and water | soluble in methanol, ethanol, acetone, ethyl acetate, acetonitrile, dimethylsulfoxide and chloroform |  |
| COC(=O)c1c(C)c(C)c(O)c(C)c1OC(=O)c1c(C)c(C)c(O)c(C)c1O [KS-506h] |  | insoluble in hexane and water | soluble in methanol, acetone, ethyl acetate, acetonitrile and dimethylsulfoxide | inhibition at 3 µg/mL ([3]; concentration of test compound 3.0 μg/ml, read-out: Release inhibition rate): 13.9%; inhibition at 10 µg/mL ([3]; concentration of test compound 10.0 μg/ml, read-out: Release inhibition rate): 59.9%; IC50 [3]: 8.2 µg/mL (≈ 21.1 µM) |
| CC(=O)CCSC(=O)c1c(C)c(C)c(O)c(C)c1OC(=O)c1c(C)c(C)c(O)c(C)c1O [KS-506m] |  | insoluble in hexane and water | soluble in methanol, acetone, ethyl acetate, acetonitrile and dimethylsulfoxide | inhibition at 0.5 µg/mL ([3]; concentration of test compound 0.5 μg/ml, read-out: Release inhibition rate): 27.9%; inhibition at 1.5 µg/mL ([3]; concentration of test compound 1.5 μg/ml, read-out: Release inhibition rate): 58.4%; inhibition at 5 µg/mL ([3]; concentration of test compound 5.0 μg/ml, read-out: Release inhibition rate): 83.3%; IC50 [3]: 1.2 µg/mL (≈ 2.61 µM) |
| Cc1c(C)c(C(=O)Oc2c(C)c(O)c(C)c(C)c2SSC(=O)c2c(C)c(C)c(O)c(C)c2OC(=O)c2c(C)c(C)c(O)c(C)c2O)c(O)c(C)c1O [KS-506x] | 0.28 µg/mL | insoluble in hexane and water | soluble in methanol, ethanol, acetone, ethyl acetate, acetonitrile, dimethylsulfoxide and chloroform |  |
| COc1ccc(Cc2nccc3cc(OC)c(OC)cc23)cc1OC [Papaverine hydrochloride, reference compound] | 60 µg/mL |  |  |  |
| COc1c(O)cc2cc(C)oc(=O)c2c1O [Reticurol, reference compound] | 20 µg/mL |  |  |  |
